Paper PMC11277489, “Novel Piperazine Derivatives of Vindoline as Anticancer Agents” (International Journal of Molecular Sciences, 2024)

What was measured:
[1] = system: SN12C; assay: NCI60 one-dose screen (10 μM), Renal Cancer; format: cell-based; conditions: Homo sapiens, read-out: Growth percent rate
[2] = system: SF-295; assay: NCI60 one-dose screen (10 μM), CNS Cancer; format: cell-based; conditions: Homo sapiens, SF-295, read-out: Growth percent rate
[3] = system: NCI-H460; assay: NCI60 one-dose screen (10 μM), Non-small Cell Lung Cancer; format: cell-based; conditions: Homo sapiens, NCI-H460, read-out: Growth percent rate
[4] = system: NCI-H23; assay: as above; format: cell-based; conditions: Homo sapiens, NCI-H23, read-out: Growth percent rate
[5] = system: SNB-19; assay: NCI60 one-dose screen (10 μM), CNS Cancer; format: cell-based; conditions: Homo sapiens, SNB-19, read-out: Growth percent rate
[6] = system: HOP-62; assay: NCI60 one-dose screen (10 μM), Non-small Cell Lung Cancer; format: cell-based; conditions: Homo sapiens, HOP-62, read-out: Growth percent rate
[7] = system: SNB-75; assay: NCI60 one-dose screen (10 μM), CNS Cancer; format: cell-based, human; conditions: Homo sapiens, SNB-75, read-out: Growth percent rate
[8] = system: SK-MEL-5; assay: NCI60 one-dose screen (10 μM), Melanoma; format: cell-based, human; conditions: Homo sapiens, SK-MEL-5, read-out: Growth percent rate
[9] = system: CCRF-CEM; assay: NCI60 one-dose screen (10 μM), Leukemia; format: cell-based; conditions: Homo sapiens, read-out: Growth percent rate
[10] = system: 60 human tumor cell lines (NCI60); assay: NCI60 one-dose screen (10 μM), whole panel; format: cell-based
[11] = system: MALME-3M; assay: NCI60 one-dose screen (10 μM), Melanoma; format: cell-based; conditions: Homo sapiens, Malme-3M, read-out: Growth percent rate
[12] = system: HCT-116; assay: NCI60 one-dose screen (10 μM), Colon Cancer; format: cell-based; conditions: Homo sapiens, HCT-116, read-out: Growth percent rate
[13] = system: EKVX; assay: NCI60 one-dose screen (10 μM), Non-small Cell Lung Cancer; format: cell-based; conditions: Homo sapiens, read-out: Growth percent rate
[14] = system: HCC-2998; assay: NCI60 one-dose screen (10 μM), Colon Cancer; format: cell-based; conditions: Homo sapiens, HCC 2998, read-out: Growth percent rate
[15] = system: NCI-H322M; assay: NCI60 one-dose screen (10 μM), Non-small Cell Lung Cancer; format: cell-based; conditions: Homo sapiens, read-out: Growth percent rate
[16] = system: A498; assay: NCI60 one-dose screen (10 μM), Renal Cancer; format: cell-based; conditions: Homo sapiens, A498, read-out: Growth percent rate
[17] = system: NCI-H522; assay: NCI60 one-dose screen (10 μM), Non-small Cell Lung Cancer; format: cell-based; conditions: Homo sapiens, NCI-H522, read-out: Growth percent rate
[18] = system: A549/ATCC; assay: as above; format: cell-based; conditions: Homo sapiens, A549, read-out: Growth percent rate
[19] = system: RPMI-8226; assay: NCI60 one-dose screen (10 μM), Leukemia; format: cell-based; conditions: Homo sapiens, RPMI-8226, read-out: Growth percent rate
[20] = system: MDA-MB-435; assay: NCI60 one-dose screen (10 μM), Melanoma; format: cell-based; conditions: Homo sapiens, MDA-MB-435, read-out: Growth percent rate
[21] = system: IGROV1; assay: NCI60 one-dose screen (10 μM), Ovarian Cancer; format: cell-based; conditions: Homo sapiens, IGROV-1, read-out: Growth percent rate
[22] = system: HL-60(TB); assay: NCI60 one-dose screen (10 μM), Leukemia; format: cell-based; conditions: Homo sapiens, HL-60, read-out: Growth percent rate
[23] = system: TK-10; assay: NCI60 one-dose screen (10 μM), Renal Cancer; format: cell-based; conditions: Homo sapiens, TK-10, read-out: Growth percent rate
[24] = system: DU-145; assay: NCI60 one-dose screen (10 μM), Prostate Cancer; format: cell-based; conditions: Homo sapiens, DU-145, read-out: Growth percent rate
[25] = system: SK-MEL-28; assay: NCI60 one-dose screen (10 μM), Melanoma; format: cell-based; conditions: Homo sapiens, SK-MEL-28, read-out: Growth percent rate
[26] = system: ACHN; assay: NCI60 one-dose screen (10 μM), Renal Cancer; format: cell-based; conditions: Homo sapiens, read-out: Growth percent rate
[27] = system: MCF7; assay: NCI60 one-dose screen (10 μM), Breast Cancer; format: cell-based; conditions: Homo sapiens, MCF7, read-out: Growth percent rate
[28] = system: MOLT-4; assay: NCI60 one-dose screen (10 μM), Leukemia; format: cell-based, human; conditions: Homo sapiens, MOLT-4, read-out: Growth percent rate
[29] = system: OVCAR-8; assay: NCI60 one-dose screen (10 μM), Ovarian Cancer; format: cell-based; conditions: Homo sapiens, OVCAR-8, read-out: Growth percent rate
[30] = system: HT29; assay: NCI60 one-dose screen (10 μM), Colon Cancer; format: cell-based; conditions: Homo sapiens, HT-29, read-out: Growth percent rate
[31] = system: OVCAR-3; assay: NCI60 one-dose screen (10 μM), Ovarian Cancer; format: cell-based; conditions: Homo sapiens, OVCAR-3, read-out: Growth percent rate
[32] = system: UACC-257; assay: NCI60 one-dose screen (10 μM), Melanoma; format: cell-based; conditions: Homo sapiens, UACC-257, read-out: Growth percent rate
[33] = system: KM12; assay: NCI60 one-dose screen (10 μM), Colon Cancer; format: cell-based, human; conditions: Homo sapiens, KM12, read-out: Growth percent rate
[34] = system: K-562; assay: NCI60 one-dose screen (10 μM), Leukemia; format: cell-based; conditions: Homo sapiens, K562, read-out: Growth percent rate
[35] = system: SK-MEL-2; assay: NCI60 one-dose screen (10 μM), Melanoma; format: cell-based; conditions: Homo sapiens, SK-MEL-2, read-out: Growth percent rate
[36] = system: CAKI-1; assay: NCI60 one-dose screen (10 μM), Renal Cancer; format: cell-based; conditions: Homo sapiens, CAKI-1, read-out: Growth percent rate
[37] = system: U251; assay: NCI60 one-dose screen (10 μM), CNS Cancer; format: cell-based; conditions: Homo sapiens, U-251, read-out: Growth percent rate
[38] = system: OVCAR-4; assay: NCI60 one-dose screen (10 μM), Ovarian Cancer; format: cell-based; conditions: Homo sapiens, OVCAR-4, read-out: Growth percent rate
[39] = system: SW-620; assay: NCI60 one-dose screen (10 μM), Colon Cancer; format: cell-based; conditions: Homo sapiens, SW-620, read-out: Growth percent rate
[40] = system: 786–0; assay: NCI60 one-dose screen (10 μM), Renal Cancer; format: cell-based; conditions: Homo sapiens, 786-0, read-out: Growth percent rate
[41] = system: SF-268; assay: NCI60 one-dose screen (10 μM), CNS Cancer; format: cell-based; conditions: Homo sapiens, SF-268, read-out: Growth percent rate
[42] = system: M14; assay: NCI60 one-dose screen (10 μM), Melanoma; format: cell-based; conditions: Homo sapiens, M14, read-out: Growth percent rate

`CCC12C=CCN3CCC4(c5ccc(OC)cc5N(C)C4C(O)(C(=O)OC)C1O)C32` (stereo not shown) [Compound 13, 17-desacetylvindoline] gave an activity at 10 µM [1] of 99%, an activity at 10 µM [2] of 101% and an activity at 10 µM [3] of 106%. The activity at 10 µM [4] was 93%, the activity at 10 µM [5] was 97.4% and the activity at 10 µM [6] was 102%. It also gave an activity at 10 µM [7] of 84.9%, an activity at 10 µM [8] of 90.5% and an activity at 10 µM [9] of 103%. The “antiproliferative effect (in words)” value ([10]; 10 μM one-dose, NCI60) was “a notable antiproliferative effect was not shown”, the activity at 10 µM ([10]; Homo sapiens, read-out: Growth percent rate, Mean) was 98.8% and the activity at 10 µM [11] was 90.8%. For the same compound, the activity at 10 µM [12] was 99.2%, the activity at 10 µM [13] was 98.9% and the activity at 10 µM [14] was 96.8%. The activity at 10 µM [15] was 92.8%, the activity at 10 µM [16] was 104% and the activity at 10 µM [17] was 94%. For the same compound, the activity at 10 µM [18] was 103%, the activity at 10 µM [19] was 99.4% and the activity at 10 µM [20] was 89%. For the same compound, the activity at 10 µM [21] was 95.8%, the activity at 10 µM [22] was 119% and the activity at 10 µM [23] was 93.3%. The activity at 10 µM [24] was 110%, the activity at 10 µM [25] was 92.1% and the activity at 10 µM [26] was 96%. The activity at 10 µM [27] was 95.7%, the activity at 10 µM [28] was 100% and the activity at 10 µM [29] was 103%. It also gave an activity at 10 µM [30] of 102%, an activity at 10 µM [31] of 112% and an activity at 10 µM [32] of 96.7%. The activity at 10 µM [33] was 103%, the activity at 10 µM [34] was 101% and the activity at 10 µM [35] was 116%. It also gave an activity at 10 µM [36] of 98.2%, an activity at 10 µM [37] of 99.3% and an activity at 10 µM [38] of 95.8%. The activity at 10 µM [39] was 99.4%, the activity at 10 µM [40] was 97.7% and the activity at 10 µM [41] was 107%. For the same compound, the activity at 10 µM [42] was 94.7%.
